Row | melting point | SMILES
1 | 135.8 to 139.4 °C | O=C(CCCCCNC(=O)/C(=C\c1ccc(F)c(F)c1)c1ccc(F)cc1)NO [Example 21]
2 | 100.3 to 103.9 °C | O=C(CCCCCNC(=O)/C(=C\c1ccc(F)c(Cl)c1)c1ccc(O)cc1)NO [Example 42, (2Z)-3-(3-Chloro-4-fluorophenyl)-2-(4-hydroxyphenyl)-N-[6-(hydroxyamino)-6-oxohexyl]acrylamide]
3 | 163.8 to 164.3 °C | O=C(CCCCCNC(=O)/C(=C\c1ccc(F)c(Cl)c1)c1ccc(F)cc1)NO [Example 10, (2Z)-3-(3-Chloro,4-fluorophenyl)-2-(4-fluorophenyl)-N-[6-(hydroxyamino)-6-oxohexyl]acrylamide]
4 | 181 to 185.2 °C | O=C(CCCCCNC(=O)/C(=C\c1ccc(Cl)s1)c1ccc(F)cc1)NO [Example 44, (2Z)-3-(5-Chlorothiophen-2-yl)-2-(4-fluorophenyl)-N-[6-(hydroxyamino)-6-oxohexyl]acrylamide]
5 | 95.1 to 103.6 °C | O=C(CCCCCNC(=O)/C(=C\c1ccc(F)c(C(F)(F)F)c1)c1ccc(C(F)(F)F)cc1)NO [Example 22, (2Z)-3-(4-Fluoro-3-trifluoromethyl-phenyl)-2-(4-trifluoromethylphenyl)-N-[6-(hydroxyamino)-6-oxohexyl]acrylamide]

Continued, compound first:

Row | SMILES | melting point
6 | COc1cc(/C=C(\C(=O)NCCCCCC(=O)NO)c2ccc(F)cc2)cc(OC)c1OC [Example 48, (2Z)-3-(3,4,5-Trimethoxyphenyl)-2-(4 fluorophenyl)-N-[6-(hydroxyamino)-6-oxohexyl]acrylamide] | 153 to 157 °C
7 | COc1cc(/C=C(\C(=O)NCCCCCC(=O)NOCc2ccccc2)c2ccc(F)cc2)cc(OC)c1 [Example 33] | 79.9 to 86.7 °C
8 | COc1cc(/C=C(\C(=O)NCCCCCC(=O)NO)c2ccc(O)cc2)cc(OC)c1 [Example 11, (2Z)-3-(3,5-dimethoxyphenyl)-2-(4-hydroxyphenyl)-N-[6-(hydroxyamino)-6-oxohexyl]acrylamide] | 144.1 to 144.6 °C
9 | Cc1ncsc1C=C(C(=O)NCCCCCC(=O)NO)c1ccc(Cl)cc1 (stereo in doubt) [Example 12, (2Z)-3-(4-Methyl-1,3-thiazol-5-yl)-2-(4-chlorophenyl)-N-[6-(hydroxyamino)-6-oxohexyl]acrylamide] | 78.5 to 79 °C
10 | COc1c(F)c(F)c(/C(=C/c2ccc(F)cc2)C(=O)NCCCCCC(=O)NC(Cc2ccc(O)cc2)C(=O)NO)c(F)c1F (stereo not shown) [Example 56] | 162.4 to 165.2 °C
